The record followed here is patent US11801266B2, “Methods of using anti-MIR126 compounds” (CITY OF HOPE, priority 2019, dated 2023).

One data set deals with CML BM LT-HSCs. The data set can be described thus: Cell cycling in mouse CML BM LT-HSCs. The note with it: 500 nM, 72 h. Type of data set: cell-based. The procedure: (§1) After transduction performed as above, GFP+ cells selected at 48 h were exposed to NIL (2 μM and 5 μM, Novartis) for another 72 h, and analyzed using assays for cell growth, apoptosis, cell cycle, CFC and CFC replating. Human HSCs and mouse LT-HSCs were also treated with CpG-miR-126 inhibitor or CpG-scrRNA (500 nM), with or without NIL (5 μM), for 72 h and analyzed for cell growth, apoptosis, cell cycle and CFC. Human CML HSCs co-cultured with control or miR-126 KD HUVECs and mouse CML LT-HSCs co-cultured with control or miR-126 KD ECs for 96 h, with or without NIL (5 μM), were also analyzed for cell growth, apoptosis, cell cycle and CFC. Cell growth was measured by Lumino Glo (Promega). Apoptosis was measured by labeling cells with Annexin V-PE or FITC or APC and 4, 6-diamidino-2-phenylindole (DAPI) (all from BD-PharMingen, San Diego, Calif.) and analyzed by flow cytometry. Cell cycle was analyzed by Ki-67-Alexa Fluor 647 (B56, BD) and DAPI labeling based on the manufacturer's protocol. Cells were also exposed to EdU (C10640, Invitrogen) for 2 h and EdU staining was analyzed according to the manufacturer's protocol. Cell proliferation was also measured by CFSE staining (Molecular probes) based on the manufacturer's protocol. […]

A further data set has as its system normal HSCs. Nature of the data set: Cell cycling (EdU and DAPI) in human normal HSCs. Type of data set: cell-based. As to conditions: 500 nM, compared to CpG-scrRNA-treated controls. The procedure:
as §1

A further data set deals with normal hematopoiesis. Nature of the data set: Transplantation of BM cells from treated WT B6 mice into recipient mice. In kind it is in vivo, mouse. The note with it: recipients of BM cells from donor mice treated with scrRNA or inhibitor, 16 weeks after transplantation.
For a further data set, the system named is normal BM LT-HSCs. Nature of the data set: Cell cycling in mouse normal BM LT-HSCs. Type of data set: cell-based. The note with it: 500 nM, 72 h. The procedure:
as §1

Another data set concerns CML HSCs. The data set can be described thus: Cell cycling (EdU and DAPI) in human CML HSCs. In kind it is cell-based. As to conditions: 500 nM, compared to CpG-scrRNA-treated controls. The procedure:
as §1

The subject of another data set is WT B6 mice. Nature of the data set: Hematologic toxicity in normal WT B6 mice.
The subject of another data set is CML LSCs. The data set can be described thus: In vivo treatment of CML mice (SCLtTA/BCR-ABL BM cells transplanted into congenic B6 mice). The arrangement: species or system mouse. Here is the method: Next, we transplanted BM cells from SCLtTA/BCR-ABL mice (CD45.2) into congenic B6 mice (CD45.1). Following confirmation of CML development at 4 weeks after transplantation, mice were treated as above with scrRNA, inhibitor, scrRNA+NIL, or inhibitor+NIL for 3 weeks.

A further data set relates to miR-126. The data set can be described thus: In vivo miR-126 down-regulation in sorted LT-HSCs and ECs. As to conditions: normal and CML mice, 5 mg/kg/day iv daily for 3 days; QPCR. The arrangement: species or system mouse. Here is the method: Next, we evaluated CpG-miR-126 inhibitor-Cy3 uptake in mouse LT-HSCs and ECs in vitro and in vivo. […]
To measure the miRNA and mRNA expression, total RNA was extracted using the miRNeasy Mini Kit (Qiagen, Valencia, Calif.). For miRNA expression, reverse transcription using MultiScribe™ Reverse Transcriptase and Q-PCR analysis using Taqman assays (Applied Biosystems) were performed according to the manufacturer's protocol. RNU44 and snoRNA234 was used as internal controls for human and mouse miRNA respectively. For mRNA expression, first-strand cDNA was synthesized using the SuperScript III First-Strand Kit and then QPCR was performed using TaqMan Gene Expression Assays (Thermo Fisher). BCR-ABL expression in human and mouse samples were measured with primer and probe sequences for BCR-ABL (B3A2 or B2A2), as previously described^46. Results are presented as log 2-transformed ratio according to the 2−ΔCt method (ΔCt=Ct of target−Ct of reference).

The mark [1] stands for this setting: WT B6 mice, 5 mg/kg/day i.v. for 3 weeks, compared with scrRNA-treated control mice.

Protocol for normal hematopoiesis: We treated WT B6 mice with CpG-scrRNA (scrRNA) or CpG-miR-126 inhibitor (inhibitor, 5 mg/kg/day i.v.) for 3 weeks, after which we collected their BM cells and transplanted them into recipient mice (3×10^5 BM cells/mouse).

With “5′ G*G*T GCA TCG ATG CAGG*G*G* G*G xxxxx mCmGmC mAmUmU mAmUmU mAmCmU mCmAmC mGmGmU mAmCmG mA-3′ (GGTGCATCGATGCAGGGGGGCGCAUUAUUACUCACGGUACGA; CpG ODN, C3 linkers, phosphorothioate, 2'OMe; (1)..(2) phosphorothioation; (2)..(3) phosphorothioation; (16)..(17) phosphorothioation; (17)..(18) phosphorothioation; (18)..(19) phosphorothioation; (19)..(20) phosphorothioation; (20)..(21) Five C3 carbon chain linkers, ((CH2)3)5; modified_base (21)..(21) cm; modified_base (22)..(22) gm; modified_base (23)..(23) cm; modified_base (24)..(24) 2′-O-Methyladenosine; modified_base (25)..(26) um; mod) [CpG-miR-126 inhibitor, anti-miR-126 oligodeoxynucleotide linked to a CpG ODN (TLR9 ligand) by 5 C3 linker units; phosphothioated, 2′OMe-modified]”, in the data set with CML BM LT-HSCs, the cell cycling result is given as “increased cell cycling”. Besides, in the data set with normal HSCs, the cell cycling result is listed as “increased cell cycling”. Also, in the data set on normal hematopoiesis, the “donor LT-HSC numbers in BM” value is given as “no significant differences” and the “donor cell engraftment in PB, BM or spleen” value is given as “no significant differences”. Also, in the data set with normal BM LT-HSCs, the cell cycling entry is listed as “increased cell cycling”. The cell cycling entry in the data set with CML HSCs was “increased cell cycling”. In the data set on WT B6 mice (setting [1]), the “numbers of ECs in the BM” value is given as “no significant differences”, the “numbers of LT-HSCs in the BM” value is “no significant differences”, the “numbers of WBCs in PB” value is on record as “no significant differences” and the “numbers of mononuclear cells in the BM” value is reported as “no significant differences”. In the data set with WT B6 mice (setting [1]), the “numbers of platelets (PLT) in PB” value is given as “no significant differences” and the “numbers of red blood cells (RBC) in PB” value was “increased”. Further, in the data set on WT B6 mice (overall conclusion, WT B6 mice treated for 3 weeks), the “pre-clinical toxicity for normal hematopoiesis” value is given as “lacks pre-clinical toxicity for normal hematopoiesis”. In addition, in the data set with CML LSCs (CML mice treated 3 weeks, compared with scrRNA-treated mice), the “miR-126 levels in total ECs, Sca-1+ECs and Sca-1-ECs from BM” value is “significantly lower miR-126 levels”. The substance also showed a mice that survived in the data set with CML LSCs (CML mice, 3 weeks of treatment, followed 60 days after treatment discontinuation) of 50%. For the same substance, in the data set with miR-126, the “miR-126 down-regulation in sorted LT-HSCs and ECs” value is reported as “significant miR-126 down-regulation”.
